Measurements as given in patent US8192962B2, “Processes for detecting toxic substances” (Daikin Industries, Ltd., priority 2001, dated 2012).

System: Genes belonging to other category
Assay: DNA chip mRNA expression in yeast, genes belonging to other category (Table 9)
Type: cell-based, Saccharomyces cerevisiae S288C
Protocol: Yeast (Saccharomyces cerevisiae S288C (α SUC2mal mel gap2 CUP1)) were incubated at 25° C. on YPD medium (yeast extract 1%, polypepton 2%, glucose 2%). One of toxic chemical substances was added to the cells at logarithmic growth phase, and the cells were further incubated for two hours. Cells were cultured without any chemical substance in the same condition, and were used as control. Concentrations of the chemical substances were defined to inhibit the growth of the yeast but not lead to death.
After completion of the incubation, the culture was centrifuged to collect the cells. To the cells, sodium acetate buffer (50 mM sodium acetate, 10 mM EDTA, 1% SDS) was added, and the mixture was shaken at 65° C. for five minutes, followed by returning to room temperature, and obtaining the supernatant, of which the procedures were repeated two times. To the supernatant, ½ amount of a solution of phenol/chloroform was added, and the mixture was centrifuged to give a supernatant, which was added with an equal amount of chloroform, and the mixture was centrifuged to give a supernatant. To the supernatant, an equal amount of isopropanol containing 0.3 M sodium acetate was added, and the mixture was allowed to stand at room temperature for 30 minutes, after which the mixture was centrifuged to give a sediment of the whole RNAs. Seventy % ethanol was added to the sediment, and the mixture was again centrifuged to give a sediment, which was then dried and dissolved in water. mRNA was isolated from the whole RNAs as followings. In view of the fact that a poly A chain is attached to the 3′ terminus of mRNA, a polynucleotide having a poly T structure which was immobilized on the surface of latex beads was used to trap the mRNA, and then the mRNA was washed and eluted with spine column (Oligotex-dT30<Super>mRNA Purification Kit, Takara). Reverse transcription of the mRNA was conducted with a reverse transcriptase (Super Script II Reverse Transcriptase; catalogue No. 18064-014, GibcoBRL) using fluorescence-labeled nucleotides to give cDNAs that were introduced with Cy3-dUTP or Cy5-dUTP during the reverse transcription.
The labeled cDNAs were dissolved in TE buffer (10mM Tris-HCl/1 mM EDTA, pH8.0), and the solution was dropped on the DNA chip containing the whole genes of yeast (DNA Chip Research Inc. Japan) so that the cDNAs were hybridized on the DNA chip at 65° C. for over 12 hours. The fluoresces intensity of the DNA chip was read with a scanner, and the ratio relative to the fluorescence intensity resulting from the absence of chemical substance was estimated as the following, which is shown in Tables 1 to 9: […]

SMILES: O=[N+]([O-])c1cc[n+]([O-])c2ccccc12 [(5), 4-nitroquinolin-N-oxide]
- The level of expressed mRNA in the presence of chemical substance/The level of expressed mRNA in the absence of chemical substance (yeast gene YAL055W): 1.4
- The level of expressed mRNA in the presence of chemical substance/The level of expressed mRNA in the absence of chemical substance (yeast gene YAR009C): 1.4
- The level of expressed mRNA in the presence of chemical substance/The level of expressed mRNA in the absence of chemical substance (yeast gene YAR010C): 1.0
- The level of expressed mRNA in the presence of chemical substance/The level of expressed mRNA in the absence of chemical substance (yeast gene YAR062W): 1.0
- The level of expressed mRNA in the presence of chemical substance/The level of expressed mRNA in the absence of chemical substance (yeast gene YBL005W-A): 1.3
- The level of expressed mRNA in the presence of chemical substance/The level of expressed mRNA in the absence of chemical substance (yeast gene YBL041W): 1.6
- The level of expressed mRNA in the presence of chemical substance/The level of expressed mRNA in the absence of chemical substance (yeast gene YBL043W): 1.1
- The level of expressed mRNA in the presence of chemical substance/The level of expressed mRNA in the absence of chemical substance (yeast gene YBL078C): 0.7
- The level of expressed mRNA in the presence of chemical substance/The level of expressed mRNA in the absence of chemical substance (yeast gene YBL101C): 1.0
- The level of expressed mRNA in the presence of chemical substance/The level of expressed mRNA in the absence of chemical substance (yeast gene YBR009C): 1.4
- The level of expressed mRNA in the presence of chemical substance/The level of expressed mRNA in the absence of chemical substance (yeast gene YBR212W): 1.0
- The level of expressed mRNA in the presence of chemical substance/The level of expressed mRNA in the absence of chemical substance (yeast gene YBR214W): 1.1
- The level of expressed mRNA in the presence of chemical substance/The level of expressed mRNA in the absence of chemical substance (yeast gene YBR283C): 1.4
- The level of expressed mRNA in the presence of chemical substance/The level of expressed mRNA in the absence of chemical substance (yeast gene YBR290W): 1.0
- The level of expressed mRNA in the presence of chemical substance/The level of expressed mRNA in the absence of chemical substance (yeast gene YCL020W): 0.5
- The level of expressed mRNA in the presence of chemical substance/The level of expressed mRNA in the absence of chemical substance (yeast gene YCL027W): 1.2
- The level of expressed mRNA in the presence of chemical substance/The level of expressed mRNA in the absence of chemical substance (yeast gene YCR004C): 1.2
- The level of expressed mRNA in the presence of chemical substance/The level of expressed mRNA in the absence of chemical substance (yeast gene YCR039C): 1.9
- The level of expressed mRNA in the presence of chemical substance/The level of expressed mRNA in the absence of chemical substance (yeast gene YCR062W): 1.4
- The level of expressed mRNA in the presence of chemical substance/The level of expressed mRNA in the absence of chemical substance (yeast gene YCR071C): 1.2
- The level of expressed mRNA in the presence of chemical substance/The level of expressed mRNA in the absence of chemical substance (yeast gene YCR088W): 1.1
- The level of expressed mRNA in the presence of chemical substance/The level of expressed mRNA in the absence of chemical substance (yeast gene YCR096C): 2.1
- The level of expressed mRNA in the presence of chemical substance/The level of expressed mRNA in the absence of chemical substance (yeast gene YDL008W): 1.8
- The level of expressed mRNA in the presence of chemical substance/The level of expressed mRNA in the absence of chemical substance (yeast gene YDL018C): 1.8
- The level of expressed mRNA in the presence of chemical substance/The level of expressed mRNA in the absence of chemical substance (yeast gene YDL137W): 1.8
- The level of expressed mRNA in the presence of chemical substance/The level of expressed mRNA in the absence of chemical substance (yeast gene YDL192W): 1.4
- The level of expressed mRNA in the presence of chemical substance/The level of expressed mRNA in the absence of chemical substance (yeast gene YDL238C): 0.9
- The level of expressed mRNA in the presence of chemical substance/The level of expressed mRNA in the absence of chemical substance (yeast gene YDR055W): 1.7
- The level of expressed mRNA in the presence of chemical substance/The level of expressed mRNA in the absence of chemical substance (yeast gene YDR084C): 1.2
- The level of expressed mRNA in the presence of chemical substance/The level of expressed mRNA in the absence of chemical substance (yeast gene YDR085C): 0.9
- The level of expressed mRNA in the presence of chemical substance/The level of expressed mRNA in the absence of chemical substance (yeast gene YDR104C): 1.3
- The level of expressed mRNA in the presence of chemical substance/The level of expressed mRNA in the absence of chemical substance (yeast gene YDR115W): 1.4
- The level of expressed mRNA in the presence of chemical substance/The level of expressed mRNA in the absence of chemical substance (yeast gene YDR259C): 1.0
- The level of expressed mRNA in the presence of chemical substance/The level of expressed mRNA in the absence of chemical substance (yeast gene YDR315C): 0.9
- The level of expressed mRNA in the presence of chemical substance/The level of expressed mRNA in the absence of chemical substance (yeast gene YDR358W): 1.4
- The level of expressed mRNA in the presence of chemical substance/The level of expressed mRNA in the absence of chemical substance (yeast gene YDR373W): 1.8
- The level of expressed mRNA in the presence of chemical substance/The level of expressed mRNA in the absence of chemical substance (yeast gene YDR378C): 1.0
- The level of expressed mRNA in the presence of chemical substance/The level of expressed mRNA in the absence of chemical substance (yeast gene YDR388W): 0.7
- The level of expressed mRNA in the presence of chemical substance/The level of expressed mRNA in the absence of chemical substance (yeast gene YDR403W): 1.2
- The level of expressed mRNA in the presence of chemical substance/The level of expressed mRNA in the absence of chemical substance (yeast gene YDR432W): 1.6
- The level of expressed mRNA in the presence of chemical substance/The level of expressed mRNA in the absence of chemical substance (yeast gene YDR481C): 1.0
- The level of expressed mRNA in the presence of chemical substance/The level of expressed mRNA in the absence of chemical substance (yeast gene YDR510W): 0.7
- The level of expressed mRNA in the presence of chemical substance/The level of expressed mRNA in the absence of chemical substance (yeast gene YEL042W): 0.7
- The level of expressed mRNA in the presence of chemical substance/The level of expressed mRNA in the absence of chemical substance (yeast gene YEL066W): 0.8
- The level of expressed mRNA in the presence of chemical substance/The level of expressed mRNA in the absence of chemical substance (yeast gene YER009W): 1.2
- The level of expressed mRNA in the presence of chemical substance/The level of expressed mRNA in the absence of chemical substance (yeast gene YER021W): 1.4
- The level of expressed mRNA in the presence of chemical substance/The level of expressed mRNA in the absence of chemical substance (yeast gene YER025W): 1.5
- The level of expressed mRNA in the presence of chemical substance/The level of expressed mRNA in the absence of chemical substance (yeast gene YER039C): 1.5
- The level of expressed mRNA in the presence of chemical substance/The level of expressed mRNA in the absence of chemical substance (yeast gene YER094C): 1.9
- The level of expressed mRNA in the presence of chemical substance/The level of expressed mRNA in the absence of chemical substance (yeast gene YER107C): 1.3
- The level of expressed mRNA in the presence of chemical substance/The level of expressed mRNA in the absence of chemical substance (yeast gene YER130C): 1.7
- The level of expressed mRNA in the presence of chemical substance/The level of expressed mRNA in the absence of chemical substance (yeast gene YFL022C): 0.7
- The level of expressed mRNA in the presence of chemical substance/The level of expressed mRNA in the absence of chemical substance (yeast gene YFL026W): 1.4
- The level of expressed mRNA in the presence of chemical substance/The level of expressed mRNA in the absence of chemical substance (yeast gene YFL028C): 1.7
- The level of expressed mRNA in the presence of chemical substance/The level of expressed mRNA in the absence of chemical substance (yeast gene YFL043C): 1.2
- The level of expressed mRNA in the presence of chemical substance/The level of expressed mRNA in the absence of chemical substance (yeast gene YFR004W): 1.0
- The level of expressed mRNA in the presence of chemical substance/The level of expressed mRNA in the absence of chemical substance (yeast gene YGL011C): 1.8
- The level of expressed mRNA in the presence of chemical substance/The level of expressed mRNA in the absence of chemical substance (yeast gene YGL094C): 1.3
- The level of expressed mRNA in the presence of chemical substance/The level of expressed mRNA in the absence of chemical substance (yeast gene YGL158W): 1.0
- The level of expressed mRNA in the presence of chemical substance/The level of expressed mRNA in the absence of chemical substance (yeast gene YGL207W): 1.3
- The level of expressed mRNA in the presence of chemical substance/The level of expressed mRNA in the absence of chemical substance (yeast gene YGL229C): 1.0
- The level of expressed mRNA in the presence of chemical substance/The level of expressed mRNA in the absence of chemical substance (yeast gene YGR023W): 1.0
- The level of expressed mRNA in the presence of chemical substance/The level of expressed mRNA in the absence of chemical substance (yeast gene YGR120C): 1.8
- The level of expressed mRNA in the presence of chemical substance/The level of expressed mRNA in the absence of chemical substance (yeast gene YGR136W): 1.2
- The level of expressed mRNA in the presence of chemical substance/The level of expressed mRNA in the absence of chemical substance (yeast gene YGR189C): 0.7
- The level of expressed mRNA in the presence of chemical substance/The level of expressed mRNA in the absence of chemical substance (yeast gene YGR213C): 1.2
- The level of expressed mRNA in the presence of chemical substance/The level of expressed mRNA in the absence of chemical substance (yeast gene YGR253C): 2.0
- The level of expressed mRNA in the presence of chemical substance/The level of expressed mRNA in the absence of chemical substance (yeast gene YGR257C): 1.3
- The level of expressed mRNA in the presence of chemical substance/The level of expressed mRNA in the absence of chemical substance (yeast gene YGR274C): 1.8
- The level of expressed mRNA in the presence of chemical substance/The level of expressed mRNA in the absence of chemical substance (yeast gene YHR004C): 1.5
- The level of expressed mRNA in the presence of chemical substance/The level of expressed mRNA in the absence of chemical substance (yeast gene YHR027C): 1.1
- The level of expressed mRNA in the presence of chemical substance/The level of expressed mRNA in the absence of chemical substance (yeast gene YHR071W): 1.5
- The level of expressed mRNA in the presence of chemical substance/The level of expressed mRNA in the absence of chemical substance (yeast gene YHR132C): 1.0
- The level of expressed mRNA in the presence of chemical substance/The level of expressed mRNA in the absence of chemical substance (yeast gene YHR139C): 1.3
- The level of expressed mRNA in the presence of chemical substance/The level of expressed mRNA in the absence of chemical substance (yeast gene YHR142W): 1.3
